Results from US20250345394A1, “HAIR-GROWING OR HAIR-FOSTERING AGENT BASED ON KERATIN FINE PARTICLES” (MYQTECH INC., priority 2022, published 2025).

System: C57BL/6 mice
Assay: Hair growing effect on mice (topical application to shaved dorsal region)
Assay type: in vivo
Conditions: 1% topically every day, male C57BL/6 mice
Experimental: In the present example, the hair growing effect of keratin microparticles on mice was investigated. The experiment was approved by Institutional Animal Care and Use Committee, University of Tsukuba (No. 17-060), and the procedure was carried out in conformity with the “Guiding principles for the care and use of animals in the field of physiological sciences” approved by the board of Physiological Society of Japan.
Six-week-old male C57BL/6 mice (Charles River Japan Inc.) were kept individually in a cage. acclimated for 1 week, and then randomly assigned to experiment groups (each group n=5) of a 1% Minoxidil treated group, a 1% keratin treated group, a 1% keratin microparticles treated group, and a milli-Q water treated group (control group). The mice were anesthetized with Isoflurane (Wako Pure Chemical Industries, Ltd.) and then telogen hair at the dorsal region of the mice was shaved using a hair clipper to induce the growth phase. […]
In the end of treatment period, the mice were slaughtered by cervical dislocation. […] Using ImageJ processing program (National Institutes of Health, Bethesda, USA), the hair regrowth at the treated area was measured.

## Nc1cc(N2CCCCC2)nc(N)[n+]1[O-] [Minoxidil]
  time of hair regrowth phenotype: ~10 day after application
